# Reference: ChEMBL document CHEMBL1135214, “Meiosis activating sterols derived from diosgenin” (2002)
# The source made the active and inactive calls. No cut-off for these calls is given here.
# Tests used:
# Format in all cases: functional
# [1] = species: Mus musculus; test: Tested for ability to induce meiosis in immature mouse oocytes by measuring the rate of germinal vesicle breakdown (GVB) relative to FF-MAS; design: concentration or dose not given beside the values
# [2] = species: Mus musculus; test: Tested for ability to induce meiosis in immature mouse oocytes by measuring the rate of germinal vesicle breakdown (GVB) relative to FF-MAS; na means Not active
# [3] = species: Mus musculus; test: Tested for ability to induce meiosis in immature mouse oocytes by measuring the rate of germinal vesicle breakdown (GVB)
SMILES,Relative activity [1] [%],other results
CC(C)CCC[C@@H](C)[C@H]1[C@@H](O)CC2C3CC=C4C(C)(C)[C@@H](O)CC[C@]4(C)C3CC[C@@]21C (stereo partly drawn),113,–
CC(C)CCC[C@@H](C)[C@H]1[C@@H](O)CC2C3CC=C4CCCC[C@]4(C)C3CC[C@@]21C (stereo partly drawn),87,–
CC(C)CCC[C@@H](C)[C@H]1[C@@H](O)CC2C3=CC=C4C(C)(C)[C@@H](O)CC[C@]4(C)C3CC[C@@]21C (stereo partly drawn),90,–
C[C@@H](CO)CCC[C@@H](C)[C@H]1CC=C2C3=C(CC[C@@]21C)[C@@]1(C)CC[C@H](O)C(C)(C)[C@@H]1CC3,–,Relative activity [2]: inactive
C[C@@H](CO)CCC[C@@H](C)[C@H]1CCC2C3=CC=C4C(C)(C)[C@@H](O)CC[C@]4(C)C3CC[C@@]21C (stereo partly drawn),89,–
C[C@@H](CI)CCC[C@@H](C)[C@H]1CC=C2C3=C(CC[C@@]21C)[C@@]1(C)CC[C@H](O)C(C)(C)[C@@H]1CC3,85,–
CC(C)CCC[C@@H](C)[C@H]1[C@@H](O[Si](C)(C)C(C)(C)C)CC2C3CC=C4C[C@@H](O)CC[C@]4(C)C3CC[C@@]21C (stereo partly drawn),43,–
"CC(CO)CCC[C@@H](C)[C@H]1CC[C@H]2[C@@H]3CC=C4C(C)(C)[C@@H](O)CC[C@]4(C)[C@H]3CC[C@]12C (single isomer, unassigned)",71,–
C[C@@H](CO)CCC[C@@H](C)[C@H]1CCC2C3CC=C4C[C@@H](O)CC[C@]4(C)C3CC[C@@]21C (stereo partly drawn),–,Relative activity [2]: inactive
C=C(C)CCC[C@@H](C)[C@H]1CC=C2C3=C(CC[C@@]21C)[C@@]1(C)CC[C@H](O)C(C)(C)[C@@H]1CC3,106,–
C[C@H](CCCC(C)(C)Cl)[C@H]1CC=C2C3=C(CC[C@@]21C)[C@@]1(C)CC[C@H](O)C(C)(C)[C@@H]1CC3,62,–
CC(C)=CCC[C@@H](C)[C@H]1CC=C2C3=C(CC[C@@]21C)[C@@]1(C)CC[C@H](O)C(C)(C)[C@@H]1CC3,–,Activity [3]: 100%
C[C@@H](CCl)CCC[C@@H](C)[C@H]1CC=C2C3=C(CC[C@@]21C)[C@@]1(C)CC[C@H](O)C(C)(C)[C@@H]1CC3,87,–
